# Experiments:
# [1] = tested on: HCT-8; assay: Cytotoxicity against human HCT8 cells after 72 hrs by MTT assay; format: functional, cell-based; conditions: HCT-8, 72 h
# [2] = tested on: BGC-823; assay: Cytotoxicity against human BGC823 cells after 72 hrs by MTT assay; format: functional, cell-based; conditions: BGC-823, 72 h
# [3] = tested on: KB; assay: Cytotoxicity against human KB cells after 72 hrs by MTT assay; format: functional, cell-based
# [4] = tested on: A549; assay: Cytotoxicity against human A549 cells after 72 hrs by MTT assay; format: functional, cell-based; conditions: A549, 72 h
# [5] = Cytotoxicity against human embryo lung fibroblast after 72 hrs by MTT assay; format: cell-based
# [6] = Selectivity ratio of IC50 for human embryo lung fibroblast to IC50 for human KB cells; format: ADME, cell-based; conditions: human embryo lung fibroblasts and KB cells
Structure (SMILES),IC50 [1] [µg/mL],IC50 [2] [µg/mL],IC50 [3] [µg/mL],IC50 [4] [µg/mL],IC50 [5] [µg/mL],selectivity ratio [6]
CCCCOC(=O)[C@H]1O[C@@H](O[C@H]2CC[C@@]3(C)C(CC[C@]4(C)[C@@H]3CC=C3[C@@H]5CC(C)(C)C[C@H](OC(=O)/C=C(\C)CCC=C(C)C)[C@]5(CO)[C@H](O)[C@H](O)[C@]34C)C2(C)C)[C@H](O[C@@H]2O[C@H](CO)[C@@H](O)[C@H](O)[C@H]2O)[C@@H](O)[C@@H]1O[C@@H]1O[C@@H](CO)[C@H](O)[C@H]1O (some centres not stated),4.04,–,–,–,–,–
CCCCOC(=O)[C@H]1O[C@@H](O[C@H]2CC[C@@]3(C)C(CC[C@]4(C)[C@@H]3CC=C3[C@@H]5CC(C)(C)[C@@H](OC(=O)/C=C(\C)CCC=C(C)C)[C@H](OC(=O)C(C)CC)[C@]5(CO)[C@H](O)[C@H](O)[C@]34C)C2(C)C)[C@H](O[C@@H]2O[C@H](CO)[C@@H](O)[C@H](O)[C@H]2O)[C@@H](O)[C@@H]1O[C@@H]1O[C@@H](CO)[C@H](O)[C@H]1O (some centres not stated),2.86,7.29,–,–,–,–
COC(=O)[C@H]1O[C@@H](O[C@H]2CC[C@@]3(C)C(CC[C@]4(C)[C@@H]3CC=C3[C@@H]5CC(C)(C)[C@@H](O)[C@H](O)[C@]5(CO)[C@H](O)[C@H](O)[C@]34C)C2(C)C)[C@H](O[C@@H]2O[C@H](CO)[C@@H](O)[C@H](O)[C@H]2O)[C@@H](O)[C@@H]1O[C@@H]1O[C@@H](CO)[C@H](O)[C@H]1O (some centres not stated),6.8,–,0.3,0.66,> 10,> 33
CCC(C)C(=O)O[C@H]1[C@H](OC(=O)/C=C(\C)CCC=C(C)C)C(C)(C)C[C@H]2C3=CC[C@@H]4[C@@]5(C)CC[C@H](O[C@@H]6O[C@H](C(=O)OC)[C@@H](O[C@@H]7O[C@@H](CO)[C@H](O)[C@H]7O)[C@H](O)[C@H]6O[C@@H]6O[C@H](CO)[C@@H](O)[C@H](O)[C@H]6O)C(C)(C)C5CC[C@@]4(C)[C@]3(C)[C@@H](O)[C@@H](O)[C@]21CO (some centres not stated) [SYMPLOCOSOSIDE A],4.31,–,1.72,0.67,4.62,–

# Source: ChEMBL document CHEMBL1148962, “Cytotoxic triterpenoid saponins from Symplocos chinensis” (J Nat Prod, 2004)
